Test results published in patent US20060014801A1, “Prevention and treatment of cognitive impairment using (R)-(-)-5-methyl-1-nicotynoyl-2-pyrazoline (MNP) and analogs” (The Johns Hopkins University, priority 2002, published 2006).
Where two headings read alike, the source gives them in different places.

Experiments:
GLT1B = experiment: Western blot of GLT1B protein expression in hippocampus of young rats after 7 days s.c. MNP; assay type: in vivo, Long-Evans rats; details: 50 mg/kg/day s.c. minipump
Method: Administration of MNP: Twelve young Long-Evans rats, weighing approximately 400-500 grams, received treatment with either vehicle (0.9% saline; n=6) or MNP (50 mg/kg/day; n=6). The rats were administered MNP and vehicle continuously for one week via an osmotic minipump (Alzet, model 2ML1) implanted subcutaneously on the back, slightly posterior to the scapulae. After 7 days of treatment, the rats were sacrificed, their brains were removed, the hippocampi dissected out, frozen on dry ice and sent for Western blot analysis. The implanted minipump was also removed to verify proper drug delivery by measuring residual volume.
Preparation of brain tissue; Hippocampi were homogenized in 2 ml sucrose buffer (20 mM Tris pH 7.4, 10% sucrose, complete protease inhibitor cocktail mini-tablets [Roche cat#1-836-153]) for 25 seconds (Omni 115V Tissue Homogenizer TH-115). SDS (at 2%) was immediately added to the homogenate, and the samples were sonicated (Branson Sonifier 250; 10 pulses each). Extracts were total cellular extracts solubilized in SDS and include both cytoplasmic and membrane-bound GLT1.
Western blot analysis: Immunoblotting was performed using a LICOR Odyssey based system which uses IRDye 800 and Alexa Fluor 680 labeled secondary antibodies and signal is detected by diode lasers sensitive to infrared emissions of different wavelength. […]

[1] = Pharmacokinetics of MNP in the rat (plasma, LC/MS/MS); assay type: in vivo, male Sprague-Dawley rats; details: for concentration at 5 min / concentration at 15 min / concentration at 30 min / concentration at 60 min / concentration at 120 min / concentration at 180 min / concentration at 240 min / concentration at 480 min / concentration at 720 min / concentration at 1440 min: mean ± s.e.m., 3 rats, read-out: MNP plasma levels
Method: Pharmacokinetic experiments were conducted. MNP was dissolved in saline solution (0.9% NaCl) and administered to male Sprague-Dawley rats (weighing 250-315 grams) with vascular catheters surgically placed in both jugular veins (Charles River, Wilmington, Mass.). The catheter on the left jugular vein was used for intravenous infusion of 5 mg/kg MNP (in the animals that received the i.v. dosing), while the catheter on the right jugular vein was used for blood sample collection. Oral doses of MNP (50 and 200 mg/kg) were administered by oral gavage. […] The samples were collected in heparin-coated microtainers, spun down in a microcentrifuge (14,000 rpm for 7 minutes) to separate out the blood plasma and frozen until analyzed. Plasma levels were quantitated by LC/MS/MS analysis (Applied Biosystems/MDS SCIEX API 3000).
The pharmacokinetic parameters Cmax, tmax, area-under-the-curve (AUC), clearance, and half-life (t1/2) were calculated for oral doses of MNP (50 and 200 mg/kg) and are described in Table II. These parameters are compared to the intravenous dose (5 mg/kg) to determine the oral bioavailability (Foral) of MNP in the rat. […] The roughly 30-minute terminal half-life calculated for the intravenous dose of MNP (5 mg/kg) was similar to previously reported data (Umemura et al., Stroke, 1996; 27:1624-1628).

rat = experiment: Other behavioral measures in the rat; assay type: in vivo; details: 10 mg/kg/day
[2] = male, Sprague-Dawley, plasma, intravenous, 5 mg/kg i.v.
[3] = male, Sprague-Dawley, plasma, iv, 5 mg/kg i.v., approximate value
[4] = male, Sprague-Dawley, plasma, oral, 50 mg/kg p.o.
[5] = male, Sprague-Dawley, plasma, oral, 200 mg/kg p.o.
[6] = male, Sprague-Dawley, plasma, po, 50 mg/kg p.o., approximate value
[7] = male, Sprague-Dawley, plasma, po, 200 mg/kg p.o., approximate value

C[C@@H]1CC=NN1C(=O)c1cccnc1 [MNP, (R)-(−)-5-methyl-1-nicotinoyl-2-pyrazoline]
GLT1B immunoreactivity compared to vehicle controls (GLT1B): no difference
Time of secondary plasma peak ([1]; 50 mg/kg oral dose): about 8 hours
˜Clearance ([1]; 50 mg/kg p.o., approximate value, Clearance = Dose/AUC): ~4.8 mL/min
Plasma levels at 24 hours post-administration ([1]; 200 mg/kg oral dose): significant plasma levels
˜Clearance ([1]; 200 mg/kg p.o., approximate value, Clearance = Dose/AUC): ~7.8 mL/min
Oral bioavailability (in words) ([1]; based on AUC and Foral for both oral doses (50 and 200 mg/kg)): highly bioavailable
half-life ([1]; male, Sprague-Dawley, plasma, 5 mg/kg intravenous dose, read-out: Terminal half-life): ~30 min
concentration at 5 min [1, 2]: 6550 ± 32 ng/mL
concentration at 15 min [1, 2]: 4530 ± 60 ng/mL
concentration at 30 min [1, 2]: 2880 ± 95 ng/mL
concentration at 60 min [1, 2]: 1300 ± 75 ng/mL
concentration at 120 min [1, 2]: 272 ± 9 ng/mL
concentration at 180 min [1, 2]: 51 ± 3 ng/mL
concentration at 240 min [1, 2]: 13 ± 1 ng/mL
concentration at 480 min [1, 2]: 2 ± 1 ng/mL
concentration at 720 min [1, 2]: 3 ± 2 ng/mL
concentration at 1440 min [1, 2]: 2 ± 0.5 ng/mL
AUC [1, 3]: ~4220 ng·h/mL
Cmax [1, 3]: ~6550 ng/mL
Tmax [1, 3]: ~5 min
clearance ([1]; male, Sprague-Dawley, plasma, iv, 5 mg/kg i.v., approximate value, Clearance = Dose/AUC): ~5.6 mL/min
bioavailability ([1]; male, Sprague-Dawley, plasma, oral, 50 mg/kg p.o. vs 5 mg/kg i.v., effects of saturation and accumulation unknown, read-out: ˜Bioavailability (Foral; %)): ~119%
concentration at 5 min [1, 4]: 16000 ± 1720 ng/mL
concentration at 15 min [1, 4]: 16000 ± 933 ng/mL
concentration at 30 min [1, 4]: 13600 ± 1120 ng/mL
concentration at 60 min [1, 4]: 9980 ± 976 ng/mL
concentration at 120 min [1, 4]: 6140 ± 1980 ng/mL
concentration at 180 min [1, 4]: 4180 ± 1640 ng/mL
concentration at 240 min [1, 4]: 2470 ± 792 ng/mL
concentration at 480 min [1, 4]: 2850 ± 755 ng/mL
concentration at 720 min [1, 4]: 536 ± 327 ng/mL
concentration at 1440 min [1, 4]: 9 ± 6 ng/mL
bioavailability ([1]; male, Sprague-Dawley, plasma, oral, 200 mg/kg p.o. vs 5 mg/kg i.v., effects of saturation and accumulation unknown, read-out: ˜Bioavailability (Foral; %)): ~80%
concentration at 5 min [1, 5]: 50300 ± 2640 ng/mL
concentration at 15 min [1, 5]: 41300 ± 3210 ng/mL
concentration at 30 min [1, 5]: 36500 ± 5570 ng/mL
concentration at 60 min [1, 5]: 21600 ± 3790 ng/mL
concentration at 120 min [1, 5]: 11000 ± 2190 ng/mL
concentration at 180 min [1, 5]: 5700 ± 1970 ng/mL
concentration at 240 min [1, 5]: 5840 ± 1440 ng/mL
concentration at 480 min [1, 5]: 2920 ± 343 ng/mL
concentration at 720 min [1, 5]: 1160 ± 360 ng/mL
concentration at 1440 min [1, 5]: 6250 ± 2830 ng/mL
AUC [1, 6]: ~50200 ng·h/mL
Cmax [1, 6]: ~16000 ng/mL
Tmax [1, 6]: ~10 min
half-life ([1]; male, Sprague-Dawley, plasma, po, 50 mg/kg p.o., approximate value, read-out: ˜t1/2): ~150 min
AUC [1, 7]: ~134000 ng·h/mL
Cmax [1, 7]: ~50300 ng/mL
Tmax [1, 7]: ~5 min
half-life ([1]; male, Sprague-Dawley, plasma, po, 200 mg/kg p.o., approximate value, read-out: ˜t1/2): ~90 min
bioavailability ([1]; male, Sprague-Dawley, plasma, po, based on the results of Example 2, read-out: Oral bioavailability): ≤ 80%
Oral absorption ([1]; oral gavage, significant plasma levels at the 5-min time point): rapidly absorbed
Efficacy in other behavioral measures in the rat (rat): efficacious
